Results: patent US5011825A, “Peptides influencing diuresis and natriuresis, a process for their preparation, agents containing them, and their use” (Hoechst Aktiengesellschaft, priority 1986, dated 1991)
Where a SMILES comes first, the peptide text is derived from it. [ ]: non-standard residue; d: D form. The star is where a group is joined. d(aIle) = CC[C@H](C)[C@@H](N)C(=O)O; Leu(ol) = CC(C)C[C@H](N)CO; code Z = not defined here; Cbz = O=C(OCc1ccccc1)*; OBn = c1ccc(CO*)cc1; OtBu = CC(C)(C)O*; tBu = CC(C)(C)*

Legend:
rat [1] = assay: Diuretic, natriuretic and kaliuretic action, Experimental Design 1 (anesthetized rats, continuous NaCl infusion, i.v. bolus); assay type: in vivo; settings: for Urine / K^+ / Na^+: collection period 90 min; for Urine: control 1.267; for K^+: control 29.5; for Na^+: control 65.2; for Type of action on diuresis, natriuresis and kaliuresis (in words): judged from the data against control
Protocol: A. […]
Experimental Design 1: The rats were anesthetized with 0.1 ml of 10% strength thiobutabarbital sodium/100 g of body weight i.p. They received an NaCl infusion from 60 min before administration of the substance and continuing during the experiment (2.5 ml of a 0.9% strength NaCl solution .h^-1.0.1 kg^-1 body weight). The test substance was administered as an i.v. bolus in 0.5 ml of a 0.9% strength solution/100 g of body weight.

rat [2] = assay: Diuretic, natriuretic and kaliuretic action, Experimental Design 2 (anesthetized rats, stepwise halved NaCl infusion, i.v. bolus); assay type: in vivo; settings: dose 1 mg/kg rat i.v. bolus, collection period 120 min; for Urine: control 0.520; for K^+: control 25.8; for Na^+: control 31.5
Protocol: B. Diuretic, natruiuretic and kaliuretic action of the peptides according to the invention in Experimental Design 2 (dose: 1 mg/kg rat, colection period: 120 min.)
Experimental Design 2: The rats were anesthetized with 0.1 ml of 10% strength thiobutabarbital sodium/100 g of body weight i.p. They received an NaCl infusion from 60 min before administration of the substance up to administration of the substance (2.5 ml of a 0.85% strength NaCl solution .h^-1.0.1 kg^-1 body weight). After ad
ministration of the substance, the infusion rate was halved for one hour (1.25 ml.h^-1.0.1 kg^-1) Thereafter the infusion rate was again halved up to the end of the experiment (0.625 ml.h^1.0.1 kg^-1). The test substance was administered as i.v. bolus in 0.1 ml of a 0.85% strength NaCl solution/100 g of body weight.

Row | Compound | Urine (rat [2]) [mL/kg] | K^+ (rat [2]) [µmol/kg] | Na^+ (rat [2]) [µmol/kg] | further results
1 | H-RIFRI-OH [H-Arg-Ile-Phe-Arg-Ile-OH] |  |  |  | Urine (rat [1]; dose 1 mg/kg rat i.v. bolus): 2.00 mL/kg; K^+ (rat [1]; dose 1 mg/kg rat i.v. bolus): 68.3 µmol/kg; Na^+ (rat [1]; dose 1 mg/kg rat i.v. bolus): 211.0 µmol/kg
2 | CC(C)C[C@H](NC(=O)[C@H](NC(=O)[C@H](CCCNC(=N)N)NC(=O)OCc1ccccc1)C(C)C)C(=O)N[C@@H](CCCNC(=N)N)C(=O)N[C@@H](C(=O)OCc1ccccc1)C(C)C [Z-Arg-D-Val-Leu-Arg-D-Val-OBzl] (Cbz-R[dV]LR[dV]-OBn) | 0.27 | 38.3 | 55.1 | 
3 | H-RILRI-OH [H-Arg-Ile-Leu-Arg-Ile-OH] |  |  |  | Urine (rat [1]; dose 1 mg/kg rat i.v. bolus): 2.03 mL/kg; K^+ (rat [1]; dose 1 mg/kg rat i.v. bolus): 50.1 µmol/kg; Na^+ (rat [1]; dose 1 mg/kg rat i.v. bolus): 149.8 µmol/kg
4 | CC[C@H](C)[C@H](NC(=O)[C@@H](N)CCCNC(=N)N)C(=O)N[C@@H](CC(C)C)C(=O)N[C@@H](CCCNC(=N)N)C(=O)N[C@@H](C(=O)O)C(C)C [H-Arg-Ile-Leu-Arg-D-Val-OH] (H-RILR[dV]-OH) | 0.56 | 38.9 | 68.8 | 
5 | Z-Arg-Ile-Asp(OtBu)-Arg-Ile-ol |  |  |  | Urine (rat [1]; dose 1 μg/kg i.v. bolus): 0.79 mL/kg; K^+ (rat [1]; dose 1 μg/kg i.v. bolus): 27.8 µmol/kg; Na^+ (rat [1]; dose 1 μg/kg i.v. bolus): 118.4 µmol/kg; Type of action on diuresis, natriuresis and kaliuresis (in words) (rat [1]): antidiuretics with a natriuretic action
6 | CC[C@H](C)[C@H](NC(=O)[C@H](CCCNC(=N)N)NC(=O)[C@H](Cc1c[nH]c2ccccc12)NC(=O)[C@@H](NC(=O)[C@H](CCCNC(=N)N)NC(=O)OCc1ccccc1)[C@@H](C)CC)C(=O)O [Z-Arg-Ile-Trp-Arg-Ile-OH] (Cbz-RIWRI-OH) |  |  |  | Urine (rat [1]; dose 1 mg/kg rat i.v. bolus): 1.64 mL/kg; K^+ (rat [1]; dose 1 mg/kg rat i.v. bolus): 37.1 µmol/kg; Na^+ (rat [1]; dose 1 mg/kg rat i.v. bolus): 208.6 µmol/kg
7 | H-KFLKF-OH [H-Lys-Phe-Leu-Lys-Phe-OH] | 0.52 | 31.0 | 80.2 | 
8 | CC[C@H](C)[C@H](NC(=O)[C@H](CCCNC(=N)N)NC(=O)OCc1ccccc1)C(=O)N[C@@H](COC(C)(C)C)C(=O)N[C@@H](CCCNC(=N)N)C(=O)N1CCC[C@H]1C(=O)OC(C)(C)C [Z-Arg-Ile-Ser(tBu)-Arg-Pro-OtBu] (Cbz-RIS(tBu)RP-OtBu) | 0.44 | 37.8 | 88.9 | 
9 | H-RLQRL-OH [H-Arg-Leu-Gln-Arg-Leu-OH, H-Arg-Leu-Gln-Arg-Leu--OH] | 0.25 | 23.7 | 30.2 | 
10 | CC[C@H](C)[C@H](NC(=O)[C@H](CCCNC(=N)N)NC(=O)[C@@H](COC(C)(C)C)NC(=O)[C@@H](NC(=O)[C@@H](N)CCCNC(=N)N)[C@@H](C)CC)C(=O)O [H-Arg-Ile-D-Ser(tBu)-Arg-Ile-OH] (H-RI[dS](tBu)RI-OH) |  |  |  | Urine (rat [1]; dose 1 mg/kg rat i.v. bolus): 0.95 mL/kg; K^+ (rat [1]; dose 1 mg/kg rat i.v. bolus): 44.3 µmol/kg; Na^+ (rat [1]; dose 1 mg/kg rat i.v. bolus): 87.0 µmol/kg
11 | H-RPVKV-OH [H-Arg-Pro-Val-Lys-Val-OH] |  |  |  | Urine (rat [1]; dose 1 mg/kg rat i.v. bolus): 0.91 mL/kg; K^+ (rat [1]; dose 1 mg/kg rat i.v. bolus): 28.2 µmol/kg; Na^+ (rat [1]; dose 1 mg/kg rat i.v. bolus): 155.7 µmol/kg; Type of action on diuresis, natriuresis and kaliuresis (in words) (rat [1]): potassium-retaining natriuretics
12 | CC[C@H](C)[C@H](NC(=O)[C@H](CCCNC(=N)N)NC(=O)[C@H](CC(C)C)NC(=O)[C@@H](NC(=O)[C@H](N)CCCNC(=N)N)[C@@H](C)CC)C(=O)O [H-D-Arg-Ile-Leu-Arg-Ile-OH] (H-[dR]ILRI-OH) | 0.22 | 33.6 | 55.3 | 
13 | CC[C@H](C)[C@H](NC(=O)[C@H](CCCNC(=N)N)NC(=O)[C@H](CC(C)C)NC(=O)[C@H](NC(=O)[C@@H](N)CCCNC(=N)N)C(C)C)C(=O)O [H-Arg-D-Val-Leu-Arg-Ile-OH] (H-R[dV]LRI-OH) | 0.57 | 34.9 | 83.77 | 
14 | Cbz-[dR]IL[dR]I-OBn | 0.29 | 30.1 | 48.4 | 
15 | CC[C@H](C)[C@H](NC(=O)[C@H](CCCNC(=N)N)NC(=O)OCc1ccccc1)C(=O)N[C@@H](CC(C)C)C(=O)N[C@H](CCCNC(=N)N)C(=O)N[C@H](C(=O)OCc1ccccc1)[C@@H](C)CC [Z-Arg-Ile-Leu-D-Arg-Ile-OBzl] (Cbz-RIL[dR]I-OBn) | 0.52 | 36.2 | 66.9 | 
16 | Cbz-[dR]I[dL]RI-OBn | 0.19 | 20.4 | 37.3 | 

Row | Compound | Urine (rat [2]) [mL/kg] | K^+ (rat [2]) [µmol/kg] | Na^+ (rat [2]) [µmol/kg] | further results
17 | CC[C@H](C)[C@H](NC(=O)[C@@H](N)CCCNC(=N)N)C(=O)N[C@H](CC(C)C)C(=O)N[C@@H](CCCNC(=N)N)C(=O)N[C@@H](C(=O)O)C(C)C [H-Arg-Ile-D-Leu-Arg-D-Val-OH] (H-RI[dL]R[dV]-OH) | 0.31 | 32.8 | 68.4 | 
18 | CC[C@H](C)[C@H](NC(=O)[C@@H](CCCNC(=N)N)NC(=O)[C@H](CC(C)C)NC(=O)[C@@H](NC(=O)[C@H](N)CCCNC(=N)N)[C@@H](C)CC)C(=O)O [H-D-Arg-Ile-Leu-D-Arg-Ile-OH] (H-[dR]IL[dR]I-OH) | 0.28 | 33.9 | 61.4 | 
19 | Z-Arg-I-le-Glu(OtBu)-Arg-Ile-NH2 [Z-Arg-Ile-Glu(OtBu)-Arg-Ile-NH2] | 0.47 | 36.1 | 91.5 | 
20 | CC[C@H](C)[C@H](NC(=O)[C@H](CCCNC(=N)N)NC(=O)[C@@H](CC(C)C)NC(=O)[C@@H](NC(=O)[C@H](N)CCCNC(=N)N)[C@@H](C)CC)C(=O)O [H-D-Arg-Ile-D-Leu-Arg-Ile-OH] (H-[dR]I[dL]RI-OH) | 1.13 | 49.7 | 115.9 | 
21 | H-RID(OtBu)R[Leu(ol)] |  |  |  | Urine (rat [1]; dose 1 mg/kg rat i.v. bolus): 1.55 mL/kg; K^+ (rat [1]; dose 1 mg/kg rat i.v. bolus): 64.2 µmol/kg; Na^+ (rat [1]; dose 1 mg/kg rat i.v. bolus): 180.8 µmol/kg
22 | CC[C@H](C)[C@H](NC(=O)[C@@H](CCCNC(=N)N)NC(=O)[C@H](CC(C)C)NC(=O)[C@@H](NC(=O)[C@@H](N)CCCNC(=N)N)[C@@H](C)CC)C(=O)O [H-Arg-Ile-Leu-D-Arg-Ile-OH] (H-RIL[dR]I-OH) | 0.78 | 40.8 | 93.7 | 
23 | CC[C@H](C)[C@H](NC(=O)[C@@H](N)CCCNC(=N)N)C(=O)N[C@@H](COC(C)(C)C)C(=O)N[C@@H](CCCNC(=N)N)C(=O)N1CCC[C@H]1C(=O)OC(C)(C)C [H-Arg-Ile-Ser(tBu)-Arg-Pro-OtBu] (H-RIS(tBu)RP-OtBu) | 0.63 | 31.5 | 136.8 | 
24 | CC[C@H](C)[C@H](NC(=O)[C@H](CCCNC(=N)N)NC(=O)OCc1ccccc1)C(=O)N[C@H](CC(C)C)C(=O)N[C@@H](CCCNC(=N)N)C(=O)N[C@@H](C(=O)OCc1ccccc1)C(C)C [Z-Arg-Ile-D-Leu-Arg-D-Val-OBzl] (Cbz-RI[dL]R[dV]-OBn) | 0.48 | 43.8 | 79.0 | 
25 | Z-D-Arg-Ile-Leu-Arg-Ile-OBzl ({code Z}-[dR]ILRI-OBn; reading uncertain; also: printed as Z-D-Arg-Ile-Leu-Arg-Ile-OBzl) | 0.59 | 38.1 | 86.3 | 
26 | CC[C@H](C)[C@H](NC(=O)[C@H](CCCNC(=N)N)NC(=O)[C@H](COC(C)(C)C)NC(=O)[C@@H](NC(=O)[C@@H](N)CCCNC(=N)N)[C@@H](C)CC)C(=O)O [H-Arg-Ile-Ser(tBu)-Arg-Ile-OH] (H-RIS(tBu)RI-OH) |  |  |  | Urine (rat [1]; dose 1 mg/kg rat i.v. bolus): 1.19 mL/kg; K^+ (rat [1]; dose 1 mg/kg rat i.v. bolus): 28.4 µmol/kg; Na^+ (rat [1]; dose 1 mg/kg rat i.v. bolus): 74.5 µmol/kg
27 | H-RIWRI-OH [H-Arg-Ile-Trp-Arg-Ile-OH] |  |  |  | Urine (rat [1]; dose 1 mg/kg rat i.v. bolus): 0.67 mL/kg; K^+ (rat [1]; dose 1 mg/kg rat i.v. bolus): 57.5 µmol/kg; Na^+ (rat [1]; dose 1 mg/kg rat i.v. bolus): 112.8 µmol/kg
28 | CC[C@H](C)[C@H](NC(=O)[C@H](CCCNC(=N)N)NC(=O)[C@@H](CC(C)C)NC(=O)[C@H](NC(=O)[C@H](N)CCCNC(=N)N)[C@@H](C)CC)C(=O)O [H-D-Arg-D-allo-Ile-D-Leu-Arg-Ile-OH] (H-[dR][d(aIle)][dL]RI-OH) | 0.87 | 35.5 | 95.1 | 
29 | Cbz-RID(OtBu)RI-NH2 |  |  |  | Urine (rat [1]; dose 1 mg/kg rat i.v. bolus): 1.51 mL/kg; K^+ (rat [1]; dose 1 mg/kg rat i.v. bolus): 63.3 µmol/kg; Na^+ (rat [1]; dose 1 mg/kg rat i.v. bolus): 263.2 µmol/kg
30 | H-KFLKF-NH2 [H-Lys-Phe-Leu-Lys-Phe-NH2] | 0.25 | 16.7 | 36.8 | 
31 | CC[C@H](C)[C@H](NC(=O)[C@H](CCCNC(=N)N)NC(=O)OCc1ccccc1)C(=O)N[C@@H](CC(C)C)C(=O)N[C@@H](CCCNC(=N)N)C(=O)N[C@@H](C(=O)OCc1ccccc1)C(C)C [Z-Arg-Ile-Leu-Arg-D-Val-OBzl] (Cbz-RILR[dV]-OBn) | 0.43 | 36.7 | 88.6 | 
